# In the supplement of paper PMC10307832:
# Tests used:
# Assay in all cases: relative viability (nuclei count vs DMSO), 5 days (fraction); higher = more cells survive
# NVP-TAE684 + Navitoclax = compound: COc1cc(N2CCC(N3CCN(C)CC3)CC2)ccc1Nc1ncc(Cl)c(Nc2ccccc2S(=O)(=O)C(C)C)n1 [NVP-TAE684] + CC1(C)CCC(c2ccc(Cl)cc2)=C(CN2CCN(c3ccc(C(=O)NS(=O)(=O)c4ccc(N[C@H](CCN5CCOCC5)CSc5ccccc5)c(S(=O)(=O)C(F)(F)F)c4)cc3)CC2)C1 [Navitoclax] (partner 0.5 µM)
# Method in brief: (§1)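 A single step with final 0.05% Triton X-100, 1% formaldehyde and 1 ug/ml Hoechst fixed the cells and stained nuclei 5 days after treatment. Lung cancer cell lines in 1536-well plates had been treated by pin tool the day after seeding with one drug alone or a fixed anchor-drug dose plus five library-drug doses (not always all listed) in √10 steps, and nuclei were counted on 4× images. Relative viability is the ratio of nuclei in treated wells to nuclei in vehicle wells, taken as the median of duplicate plates.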
# [1] = compound: C1=CC=C2C(=C1)N=C(S2)C(C#N)C3=NC(=NC=C3)NCCC4=CN=CC=C4 + CCNC(=O)c1noc(-c2cc(C(C)C)c(O)cc2O)c1-c1ccc(CN2CCOCC2)cc1 [Luminespib] (partner 0.01 µM)
# Method in brief: as §1
# Vandetanib + Trametinib = compound: COc1cc2/c(=N/c3ccc(Br)cc3F)nc[nH]c2cc1OCC1CCN(C)CC1 [Vandetanib] + CC(=O)Nc1cccc(-n2c(=O)n(C3CC3)c(=O)c3c(Nc4ccc(I)cc4F)n(C)c(=O)c(C)c32)c1 [Trametinib] (partner 0.02 µM)
# Method in brief: as §1
# CUDC-101 + OSI-027 = compound: C#Cc1cccc(Nc2ncnc3cc(OC)c(OCCCCCCC(=O)NO)cc23)c1 [CUDC-101] + COc1cccc2cc(-c3nc([C@H]4CC[C@H](C(=O)O)CC4)n4ncnc(N)c34)[nH]c12 [OSI-027] (partner 0.5 µM)
# Method in brief: as §1
Cell Line,relative viability (NVP-TAE684 + Navitoclax; first compound 0.2 µM),relative viability (NVP-TAE684 + Navitoclax; first compound 0.6325 µM),relative viability (NVP-TAE684 + Navitoclax; first compound 2 µM),relative viability ([1]; first compound 0.005 µM),relative viability ([1]; first compound 0.01581 µM),relative viability ([1]; first compound 0.05 µM),relative viability ([1]; first compound 0.1581 µM),relative viability ([1]; first compound 0.5 µM),relative viability (Vandetanib + Trametinib; first compound 0.02 µM),relative viability (Vandetanib + Trametinib; first compound 0.06325 µM),relative viability (Vandetanib + Trametinib; first compound 0.6325 µM),relative viability (Vandetanib + Trametinib; first compound 2 µM),relative viability (CUDC-101 + OSI-027; first compound 0.01 µM),relative viability (CUDC-101 + OSI-027; first compound 0.03162 µM),relative viability (CUDC-101 + OSI-027; first compound 0.1 µM),relative viability (CUDC-101 + OSI-027; first compound 0.3162 µM),relative viability (CUDC-101 + OSI-027; first compound 1 µM),relative viability (Vandetanib + Trametinib; first compound 0.2 µM)
NCI-H2023,0.965,1.04,0.775,0.994,1,0.901,1.03,0.765,0.498,0.507,0.556,0.49,0.433,0.461,0.432,0.488,0.325,
SW 1573,0.904,0.959,0.737,0.317,0.292,0.221,0.275,0.193,0.59,0.568,0.598,0.615,0.578,0.623,0.726,0.766,0.279,
NCI-H3122,0.282,0.525,0.176,0.0736,0.0973,0.553,0.0763,0.0863,0.208,0.186,0.259,0.204,0.909,1.07,1.03,1.14,0.927,0.113
NCI-H441,0.472,0.583,0.319,,0.308,0.351,0.365,0.301,0.527,0.467,0.405,0.351,0.622,0.625,0.621,0.803,0.399,0.43
NCI-H596,0.936,0.969,0.509,0.627,1.02,0.875,1.07,0.764,0.773,0.763,0.758,0.634,0.655,0.715,0.783,0.805,0.751,0.756
PC-3 [JPC-3],0.862,0.822,0.658,0.681,0.71,0.693,0.724,0.561,0.682,0.577,0.513,0.435,0.758,0.786,0.514,0.547,0.407,0.584
NCI-H1993,,0.791,0.696,0.846,0.852,0.821,0.834,0.738,0.568,0.552,0.545,0.494,0.61,0.552,0.625,0.626,0.657,0.499
NCI-H1355,0.882,0.992,0.622,0.618,0.832,0.765,0.763,0.568,0.412,0.426,0.465,0.402,0.393,0.385,0.411,0.416,0.309,0.438
NCI-H23,0.806,0.785,0.607,0.211,,0.204,0.225,0.215,0.382,0.342,0.455,0.293,0.71,0.647,0.631,0.607,0.509,0.335
